Entries after “also recorded” stand apart in the source; their conditions may differ. Like-named read-outs stand apart in the source and are kept apart here.
Experiments:
[1] = molecular target: human acetylcholinesterase; conditions: read-out: hAChE IC50; cited from earlier work
[2] = molecular target: human butyrylcholineserase; conditions: read-out: hBuChE IC50; cited from earlier work
[3] = molecular target: Fatty Acid Amide Hydrolase from rat brain membranes; conditions: read-out: rFAAH IC50; cited from earlier work
AChE from electric eel [4] = molecular target: T1, AChE from electric eel (Electrophorus electricus, UniProt O42275); conditions: cited from earlier work
T1 construct: AChE was obtained from electric eel and BuChE from equine serum; purchased Sigma Aldrich; host or cells: electric eel (natural source)
T1 sequence (O42275 24-633): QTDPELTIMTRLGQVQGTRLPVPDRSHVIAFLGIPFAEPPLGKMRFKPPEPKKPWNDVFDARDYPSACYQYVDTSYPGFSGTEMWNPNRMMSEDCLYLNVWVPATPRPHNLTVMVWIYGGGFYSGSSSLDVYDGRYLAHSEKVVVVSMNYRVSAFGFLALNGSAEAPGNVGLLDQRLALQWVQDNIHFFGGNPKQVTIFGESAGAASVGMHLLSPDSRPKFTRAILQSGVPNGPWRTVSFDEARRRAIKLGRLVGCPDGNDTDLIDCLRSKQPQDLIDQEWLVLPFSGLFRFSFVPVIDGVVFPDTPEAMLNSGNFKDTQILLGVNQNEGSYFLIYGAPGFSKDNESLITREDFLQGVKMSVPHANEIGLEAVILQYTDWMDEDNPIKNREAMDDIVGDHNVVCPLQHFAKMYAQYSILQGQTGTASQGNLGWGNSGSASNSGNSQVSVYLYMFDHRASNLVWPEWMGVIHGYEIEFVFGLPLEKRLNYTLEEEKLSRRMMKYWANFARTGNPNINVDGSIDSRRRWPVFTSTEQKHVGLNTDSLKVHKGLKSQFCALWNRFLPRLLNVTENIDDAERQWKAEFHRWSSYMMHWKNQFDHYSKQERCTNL

eqBuChE = molecular target: T2, eqBuChE (Equus caballus, UniProt P81908); experiment: kinetic studies of eqBuChE inhibition; format: biochemical; conditions: for type of eqBuChE inhibition: Lineweaver–Burk and Cornish–Bowden plots, substrate butyrylthiocholine
T2 construct: AChE was obtained from electric eel and BuChE from equine serum; purchased Sigma Aldrich; host or cells: equine serum (natural source)
T2 sequence (P81908 whole entry): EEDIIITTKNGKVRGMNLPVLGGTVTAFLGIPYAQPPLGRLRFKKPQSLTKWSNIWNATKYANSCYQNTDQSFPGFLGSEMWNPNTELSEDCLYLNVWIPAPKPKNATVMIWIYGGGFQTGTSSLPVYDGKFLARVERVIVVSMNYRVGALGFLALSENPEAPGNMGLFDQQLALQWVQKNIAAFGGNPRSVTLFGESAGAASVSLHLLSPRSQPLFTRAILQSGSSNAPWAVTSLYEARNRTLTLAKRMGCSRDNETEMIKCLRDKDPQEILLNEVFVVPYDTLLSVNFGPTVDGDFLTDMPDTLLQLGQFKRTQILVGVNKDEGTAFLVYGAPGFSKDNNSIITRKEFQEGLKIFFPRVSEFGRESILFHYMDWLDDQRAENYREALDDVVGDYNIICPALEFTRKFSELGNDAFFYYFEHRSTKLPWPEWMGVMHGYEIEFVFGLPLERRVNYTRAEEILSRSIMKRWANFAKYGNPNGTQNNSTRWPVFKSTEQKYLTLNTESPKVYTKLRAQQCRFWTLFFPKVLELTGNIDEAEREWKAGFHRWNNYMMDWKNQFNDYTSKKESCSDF
Description: Moreover, the dissociation constant (Ki), describing the binding affinity between the inhibitor and the enzyme, was determined.
EqBuChE stock solution was diluted with demineralized water prior to use, giving the final concentration of 0.027 U/mL in the wells. […] For each concentration of the target compound, all six BTC solutions were utilized to perform the assays. Vmax and Km values of the Michaelis−Menten kinetics were calculated by nonlinear regression from substrate−velocity curves. Lineweaver-Burk and Cornish-Bowden plots were calculated using linear regression in GraphPad Prism 5 (GraphPad Software, San Diego, CA, USA). Each experiment was performed in triplicate.

BuChE from equine serum [5] = molecular target: T3, BuChE from equine serum (Equus caballus, UniProt P81908); conditions: read-out: eqBuChE IC50 Mean ± SEM; cited from earlier work
T3 construct: AChE was obtained from electric eel and BuChE from equine serum; purchased Sigma Aldrich; host or cells: equine serum (natural source)
T3 sequence (P81908 whole entry): as above

human MAO B = molecular target: T4, human MAO B (Homo sapiens, UniProt P27338); experiment: fluorometric Monoamine Oxidase assay; format: biochemical; conditions: for inhibition at 1 µM: read-out: hMAO B %Inh. (converted)
T4 construct: purchased Sigma Aldrich M7441
T4 sequence (P27338 1-520): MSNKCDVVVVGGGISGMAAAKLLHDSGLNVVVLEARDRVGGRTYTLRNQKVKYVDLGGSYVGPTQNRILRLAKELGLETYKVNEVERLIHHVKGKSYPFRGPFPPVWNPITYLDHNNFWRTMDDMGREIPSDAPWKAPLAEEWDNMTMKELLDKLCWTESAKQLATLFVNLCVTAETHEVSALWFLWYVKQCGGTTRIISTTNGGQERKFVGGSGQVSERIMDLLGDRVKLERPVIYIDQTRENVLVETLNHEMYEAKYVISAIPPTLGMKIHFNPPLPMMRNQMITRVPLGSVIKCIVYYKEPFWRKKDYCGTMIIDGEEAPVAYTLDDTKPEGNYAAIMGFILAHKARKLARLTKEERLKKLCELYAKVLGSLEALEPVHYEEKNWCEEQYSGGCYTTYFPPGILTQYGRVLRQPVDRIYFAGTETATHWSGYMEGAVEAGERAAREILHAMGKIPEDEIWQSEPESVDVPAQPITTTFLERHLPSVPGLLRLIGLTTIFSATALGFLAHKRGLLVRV
Description: Inhibition of human MAO B (hMAO B) was evaluated using a fluorometric Monoamine Oxidase assay as we described previously.
Inhibition of hMAO B was evaluated using fluorometric Monoamine Oxidase assay as described by Łażewska et al.. Recombinant MAO B was purchased from Sigma Aldrich (M7441). […] The assay was carried out in 96-well plate. Tested compounds dissolved in DMSO (1 μM) were added to wells that contained 98 µL of enzyme dilution (1 µg/well) in phosphate buffer (50 mM, pH 7.4). […] An enzymatic reaction started following addition of para-tyramine solution (200 μM). […] Each experiment was performed in duplicate.

[6] = tested on: mouse model of scopolamine-induced memory impairments; experiment: step-through Passive Avoidance Task; format: in vivo; conditions: mice
Description: This procedure was created for studying short-term memory as well as long-term memory. The paradigm requires the rodents to behave contrary to their innate preference for dark areas and for avoiding bright ones.
The experiments were carried out on adult male Albino Swiss mice (CD-1, 18–25 g). […] Experimental groups consisted of 6–12 animals, all the animals were used only once and they were killed by cervical dislocation immediately after the assay. Behavioral measures were scored by trained observers, which were blind to experimental conditions. Treatment of laboratory animals in the present study was in full accordance with the respective Polish regulations.
Control animals (negative control) were given an appropriate amount of vehicle (1% aqueous solution of Tween 80; i.p.) 30 min before the test.
The task was performed according to the method described previously. Briefly, the test was conducted in the apparatus with two compartments (LE872, Bioseb, France). The illuminated white compartment (20 cm × 21 cm × 20 cm, 1000 lx) was separated by an automated sliding gate with the smaller dark compartment (7.3 cm × 7.5 cm × 14 cm, 10 lx) equipped with an electric grid floor. For acquisition session, mice were first placed individually in the white compartment and after 30 s the gate to the smaller compartment was opened. Immediately after entering into the dark compartment, the gate was closed and the mouse was punished by an unavoidable electric foot shock (0.8 mA for 2 s). […] Next day (24 h later), the pretested animals were placed again into the bright compartment. […] The latency time to cross through the gate between the compartments was measured.

AChE from electric eel [7] = molecular target: T1, AChE from electric eel; experiment: eeAChE inhibition, Ellman's method; format: biochemical; conditions: read-out: eeAChE % Inh.
Description: The inhibitory activities of the tested compounds against cholinesterases were evaluated by Ellman’s method. AChE was obtained from electric eel and BuChE from equine serum. Donepezil and rivastigmine were used as reference compounds. […]. Inhibitory activities of the tested compounds against cholinesterases were measured using a spectrophotometric method modified for 96-well microplates as described recently.
[…]. First, all compounds were screened at the concentration of 10 μM. The changes in absorbance were measured at 412 nm, using a microplate reader (EnSpire Multimode; PerkinElmer, Waltham, MA, USA). Then, the percent of inhibition of tested enzymes for each compound was calculated. […] Each concentration was measured in triplicate. All calculations were made using nonlinear regression GraphPad Prism 5 (GraphPad Software, San Diego, CA, USA).

histamine receptors: H4 = conditions: cited from earlier work
BuChE from equine serum [8] = molecular target: T3, BuChE from equine serum; experiment: eqBuChE inhibition, Ellman's method; format: biochemical
Description: The inhibitory activities of the tested compounds against cholinesterases were evaluated by Ellman’s method. AChE was obtained from electric eel and BuChE from equine serum. […] Inhibitory activities of the tested compounds against cholinesterases were measured using a spectrophotometric method modified for 96-well microplates as described recently.
First, all compounds were screened at the concentration of 10 μM. […] Then, the percent of inhibition of tested enzymes for each compound was calculated. […] Each concentration was measured in triplicate. All calculations were made using nonlinear regression GraphPad Prism 5 (GraphPad Software, San Diego, CA, USA).

histamine receptors: H1 = conditions: cited from earlier work
[9] = previous in vitro studies; cited from earlier work
[10] = up to 10 µM; cited from earlier work
hH3R = conditions: cited from earlier work

Cc1[nH]c2ccccc2c1CC(=O)NCCC1CCN(Cc2ccccc2)CC1 [Compound 1]
IC50 [1]: 7270 nM | IC50 [2]: 1.09 nM

O=C(NCCCCCc1ccccc1)Oc1cccc(Cn2cc(COc3ccc4ccc(=O)oc4c3)nn2)c1 [Compound 2]
IC50 [1]: 922 nM | IC50 [3]: 28 nM | IC50 [2]: 43 nM

c1ccc(-c2ccc(OCCCCCCN3CCCCCC3)cc2)cc1 [Compound 5]
IC50 (AChE from electric eel [4]; AChE from electric eel, read-out: eeAChE IC50 Mean ± SEM): 2760 ± 40 nM | eeAChE % Inh. (AChE from electric eel [4]; at 10 μM): more than 50% | type of eqBuChE inhibition (eqBuChE): non-competitive type of eqBuChE inhibition | Ki (eqBuChE; replot of Lineweaver–Burk data, read-out: dissociation constant (Ki) for eqBuChE): 652 nM | IC50 (BuChE from equine serum [5]): 600 ± 10 nM | inhibition at 1 µM (human MAO B): 45%

c1ccc(-c2ccc(OCCCCCN3CCCCCC3)cc2)cc1 [Compound 19, 1-(5-([1,1′-biphenyl]-4-yloxy)pentyl)azepane]
latency time, retention trial ([6]; 1.25 mg/kg i.p. before scopolamine 1 mg/kg): 93.5 ± 17.4 s | latency time, retention trial ([6]; 2.5 mg/kg i.p. before scopolamine 1 mg/kg): 119.1 ± 21.2 s | latency time, retention trial ([6]; 5.0 mg/kg i.p. before scopolamine 1 mg/kg): 129.8 ± 17.8 s | activity in retention trial ([6]; 10 mg/kg i.p. before scopolamine 1 mg/kg): lower activity | effect on scopolamine-induced memory deficits ([6]; Passive Avoidance Task, listed as 19 (E153)): effectively alleviated memory deficits caused by scopolamine; also recorded: reversed memory impairments induced by scopolamine | latency times, acquisition trial ([6]; i.p.): neither scopolamine, nor 19 nor rivastigmine significantly affected latency times | inhibition at 10 µM (AChE from electric eel [7]): 44% | Ki (histamine receptors: H4): 21800 nM | type of eqBuChE inhibition (eqBuChE): mixed type of enzyme inhibition; also recorded: mixed mode of enzyme inhibition | IC50 (BuChE from equine serum [8]): 590 ± 10 nM | Ki (histamine receptors: H1): 1300 nM | blood–brain barrier crossing [9]: crosses the blood–brain barrier (BBB) | mutagenic activity [10]: no mutagenic activity | IC50 (human MAO B): 243 ± 73 nM | inhibition at 1 µM (human MAO B): 54%

O=c1c2cc(Cl)ccc2oc2ccc(OCCCCCN3CCCCCC3)cc12 [Compound E342]
IC50 [1]: 120 nM | IC50 [2]: 1600 nM | Ki (hH3R): 100 nM

C#CCN(C)Cc1cc2cc(OCCCN3CCCCC3)ccc2n1C [contilisant]
IC50 [1]: 530 nM | IC50 [2]: 1690 nM | Ki (hH3R): 11 nM

Source: paper PMC8231170, “Biphenylalkoxyamine Derivatives–Histamine H3 Receptor Ligands with Butyrylcholinesterase Inhibitory Activity” (Molecules, 2021)
